Laboratory results from US20020061888A1, “Combination therapy for the prophylaxis and treatment of hyperlipidemic conditions and disorders” (priority 2000, published 2002).
Several values for one entry are separate records, joined by “and”; a condition that tells them apart may be missing. Identical values can stand only once.

Test system: Male beagle dogs
Assay: Serum total cholesterol in beagle dogs (serum lipid measurements)
Type: in vivo
Conditions: for SERUM TOTAL CHOLESTEROL / TOTAL SERUM CHOLESTEROL: n = 6; for decrease in serum total cholesterol concentration: compared to vehicle; for decrease in serum total cholesterol: after four weeks, vs pretreatment
Experimental: Male beagle dogs (9-10 kg) obtained from Marshall farms were fed a normal chow diet once a day for a two hour interval and given water ad libitum. Prior to initiating treatment, the dogs were weighed and blood samples were drawn from the cephalic vein of each dog following an overnight fast to evaluate pretreatment serum total cholesterol levels at the start of the study. […] All doses were administered in gelatin capsules per os to each dog between 9:00-9:30 a.m. prior to feeding. All animals were fed between 9:30-10:00 a.m. and were allowed two hours to eat, at which time any remaining food was removed. […] Animals were dosed daily for three weeks and blood samples were taken at the end of each week after an overnight fast for comparison with pretreatment serum total cholesterol levels. Three consecutive 24 hour fecal samples were collected for each group during the last 72 hours of each week and used to measure the concentration of fecal biles acids excreted during that time period.
Blood was collected from the cephalic vein of each dog into serum separator tubes. The blood was centrifuged at 900×g for 20 minutes at room temperature and the serum decanted. All analyses were performed on a Cobas Mira Clinical Analyzer System (Roche Diagnostic Systems, Branchburg, N.J.) using Roche Diagnostic reagents for enzymatic determinations of serum cholesterol. Commercial calibrator and quality control materials were analyzed with each run to verify assay accuracy and precision. A two-tailed, paired Students t-test was used to determine the statistical significance of changes in serum total cholesterol in treated dogs compared to pretreatment values. A one-way analysis of variance (“ANOVA”) was used to compare each pair of treatment groups to determine the statistical significance of changes in serum total cholesterol.
Beagle dogs also were administered pravastatin to evaluate the monotherapeutic effect of pravastatin on serum total cholesterol.
Male beagle dogs (9-10 kg) obtained from Marshall farms were fed once a day for two hours and given water ad libitum. Prior to initiating treatment, blood samples were drawn from the cephalic vein of each dog to evaluate pretreatment total serum cholesterol levels at the start of the study.
For the dose ranging study, the dogs were assigned to one of five groups based on mean body weights and serum total cholesterol levels. Each group received one of the following dosages: (1) vehicle (empty capsule, afternoon dosing), (2) 3.0 mg/kg/day pravastatin (afternoon dosing), (3) 10 mg/kg/day pravastatin (afternoon dosing), (4) 30 mg/kg/day pravastatin (afternoon dosing), and (5) 10 mg/kg/day pravastatin (morning dosing). One capsule containing pravastatin was administered per os to each dog between 9:00-9:30 a.m. prior to feeding for the 10 mg/kg/day morning dosing group and between 2:30-3:00 p.m. for the afternoon dosing groups. All animals were fed between 9:30-10:00 a.m. and were allowed two hours to eat, at which time any remaining food was removed. […] Animals were dosed daily for four weeks and blood samples were taken at the end of each week after an overnight fast for comparison with pretreatment serum total cholesterol levels.
Following this initial four week dose-ranging study, dogs from the two groups receiving 10 mg/kg/day pravastatin (a.m. and p.m. dosing groups) were randomized into two new treatment groups based on serum total cholesterol levels to initiate the combination treatment study. […] Dosing continued in this manner for an additional four weeks (Weeks 5-8) with blood and 48-hour fecal samples collected at the end of each week for serum lipid measurements and fecal bile acid determinations, respectively.

Compound: CC[C@H](C)C(=O)O[C@H]1C[C@H](O)C=C2C=C[C@H](C)[C@H](CC[C@@H](O)C[C@@H](O)CC(=O)O)[C@H]21 [pravastatin, Pravastatin]
- % change in serum total cholesterol compared to the pretreatment value of each group (pravastatin 0.25 mg/kg/day, Week 1): (+2) %
- SERUM TOTAL CHOLESTEROL (pravastatin 0.25 mg/kg/day, Week 1, mean ± SEM): 157 ± 10 mg/dL
- % change in serum total cholesterol compared to the pretreatment value of each group (pravastatin 0.25 mg/kg/day, Week 2): (+3) %
- SERUM TOTAL CHOLESTEROL (pravastatin 0.25 mg/kg/day, Week 2, mean ± SEM): 159 ± 12 mg/dL
- % change in serum total cholesterol compared to the pretreatment value of each group (pravastatin 0.25 mg/kg/day, Week 3): (0) %
- SERUM TOTAL CHOLESTEROL (pravastatin 0.25 mg/kg/day, Week 3, mean ± SEM): 154 ± 13 mg/dL
- decrease in serum total cholesterol concentration (pravastatin 0.25 mg/kg/day, one week of treatment): 2%
- decrease in serum total cholesterol concentration (pravastatin 0.25 mg/kg/day, three weeks of treatment): 0%
- % change in serum total cholesterol compared to the pretreatment value of each group (pravastatin 1.0 mg/kg/day, Week 1): (−1) %
- SERUM TOTAL CHOLESTEROL (pravastatin 1.0 mg/kg/day, Week 1, mean ± SEM): 153 ± 11 mg/dL
- % change in serum total cholesterol compared to the pretreatment value of each group (pravastatin 1.0 mg/kg/day, Week 2): (−4) %
- SERUM TOTAL CHOLESTEROL (pravastatin 1.0 mg/kg/day, Week 2, mean ± SEM): 149 ± 11^2 mg/dL
- % change in serum total cholesterol compared to the pretreatment value of each group (pravastatin 1.0 mg/kg/day, Week 3): (−8) %
- SERUM TOTAL CHOLESTEROL (pravastatin 1.0 mg/kg/day, Week 3, mean ± SEM): 143 ± 10^2 mg/dL
- decrease in serum total cholesterol concentration (pravastatin 1.0 mg/kg/day, one week of treatment): 1%
- decrease in serum total cholesterol concentration (pravastatin 1.0 mg/kg/day, three weeks of treatment): 8%
- % change in serum total cholesterol compared to the pretreatment value of each group (pravastatin 3.0 mg/kg/day pm dosing, Week 1): (−1) %
- TOTAL SERUM CHOLESTEROL (pravastatin 3.0 mg/kg/day pm dosing, Week 1, mean ± SEM): 157 ± 16 mg/dL
- % change in serum total cholesterol compared to the pretreatment value of each group (pravastatin 3.0 mg/kg/day pm dosing, Week 2): (−16) %
- TOTAL SERUM CHOLESTEROL (pravastatin 3.0 mg/kg/day pm dosing, Week 2, mean ± SEM): 133 ± 11^3 mg/dL
- % change in serum total cholesterol compared to the pretreatment value of each group (pravastatin 3.0 mg/kg/day pm dosing, Week 3): (−11) %
- TOTAL SERUM CHOLESTEROL (pravastatin 3.0 mg/kg/day pm dosing, Week 3, mean ± SEM): 140 ± 12^3 mg/dL
- % change in serum total cholesterol compared to the pretreatment value of each group (pravastatin 3.0 mg/kg/day pm dosing, Week 4): (−16) %
- TOTAL SERUM CHOLESTEROL (pravastatin 3.0 mg/kg/day pm dosing, Week 4, mean ± SEM): 132 ± 10^3 mg/dL
- lowering of serum total cholesterol (pravastatin 3 mg/kg/day, four week dose ranging study): 16%
- % change in serum total cholesterol compared to the pretreatment value of each group (pravastatin 4.0 mg/kg/day, Week 1): (−6) %
- SERUM TOTAL CHOLESTEROL (pravastatin 4.0 mg/kg/day, Week 1, mean ± SEM): 148 ± 10^2 mg/dL
- % change in serum total cholesterol compared to the pretreatment value of each group (pravastatin 4.0 mg/kg/day, Week 2): (−7) %
- SERUM TOTAL CHOLESTEROL (pravastatin 4.0 mg/kg/day, Week 2, mean ± SEM): 146 ± 8 mg/dL
- % change in serum total cholesterol compared to the pretreatment value of each group (pravastatin 4.0 mg/kg/day, Week 3): (−11) %
- SERUM TOTAL CHOLESTEROL (pravastatin 4.0 mg/kg/day, Week 3, mean ± SEM): 139 ± 9^2 mg/dL
- decrease in serum total cholesterol concentration (pravastatin 4.0 mg/kg/day, one week of treatment): 6%
- decrease in serum total cholesterol concentration (pravastatin 4.0 mg/kg/day, three weeks of treatment): 11%
- decrease in serum total cholesterol (pravastatin 10 mg/kg/day a.m. dosing): 16%
- % change in serum total cholesterol compared to the pretreatment value of each group (pravastatin 10.0 mg/kg/day am dosing, Week 1): (+6) %
- TOTAL SERUM CHOLESTEROL (pravastatin 10.0 mg/kg/day am dosing, Week 1, mean ± SEM): 164 ± 12 mg/dL
- % change in serum total cholesterol compared to the pretreatment value of each group (pravastatin 10.0 mg/kg/day am dosing, Week 2): (−13) %
- TOTAL SERUM CHOLESTEROL (pravastatin 10.0 mg/kg/day am dosing, Week 2, mean ± SEM): 135 ± 15^3 mg/dL
- % change in serum total cholesterol compared to the pretreatment value of each group (pravastatin 10.0 mg/kg/day am dosing, Week 3): (−15) %
- TOTAL SERUM CHOLESTEROL (pravastatin 10.0 mg/kg/day am dosing, Week 3, mean ± SEM): 131 ± 10^3 mg/dL
- % change in serum total cholesterol compared to the pretreatment value of each group (pravastatin 10.0 mg/kg/day am dosing, Week 4): (−16) %
- TOTAL SERUM CHOLESTEROL (pravastatin 10.0 mg/kg/day am dosing, Week 4, mean ± SEM): 130 ±7 mg/dL and 130 ± 7^3 mg/dL
- decrease in serum total cholesterol (pravastatin 10 mg/kg/day p.m. dosing): 21%
- % change in serum total cholesterol compared to the pretreatment value of each group (pravastatin 10.0 mg/kg/day pm dosing, Week 1): (−8) %
- TOTAL SERUM CHOLESTEROL (pravastatin 10.0 mg/kg/day pm dosing, Week 1, mean ± SEM): 146 ± 10 mg/dL
- % change in serum total cholesterol compared to the pretreatment value of each group (pravastatin 10.0 mg/kg/day pm dosing, Week 2): (−19) %
- TOTAL SERUM CHOLESTEROL (pravastatin 10.0 mg/kg/day pm dosing, Week 2, mean ± SEM): 129 ± 10^3 mg/dL
- % change in serum total cholesterol compared to the pretreatment value of each group (pravastatin 10.0 mg/kg/day pm dosing, Week 3): (−19) %
